Experimental data reported in EP4316482A1, “LEVODOPA FOR PREVENTING ADDICTION” (4P-Pharma, priority 2022, dated 2024).

Experiments:
Type in all cases: in vivo
[1] = system: C57B1/6J mice; assay: Observation of mice activity: methylphenidate-induced hyperactivity (Example 1); settings: male mice, IP, methylphenidate 10 mg/kg, levodopa 17 mg/kg, 5 minutes session 15 minutes after treatment, Mean ± SEM, n=6; for horizontal activity: line crossings; for vertical activity: rearing or climbing
Method: • Species / Strain: Mice / C57B1/6J • Gender / Number / Age: Male / 24 / 8 weeks at study initiation • Source: Janvier Labs, France
The Test items and vehicle were administered via intraperitoneal injections according to Table 2. Table 2 - Study design
(§1) Mice were subj ected to a behavioral test to evaluate their activity 15 minutes after treatment administration (5 minutes session). Mice were acclimated to the surrounding for 15 minutes before the beginning of the test. At the appropriate time after treatment administration, mice (1 per cage) were placed in the middle of a polyethylene cage measuring 17 × 32 × 14 cm without stainless steel top grill (no access to food or drinking water), without bedding and with a line drawn at the bottom of the cage. Activity was then monitored during 5 minutes session at 15 minutes after treatment administration, measuring different parameters: • Horizontal activity: the number of times the mice crossed the line drawn at the bottom of the cage during the session was recorded to assess horizontal activity levels. • Vertical activity: the number of rearing or climbing was recorded to assess vertical activity levels.

[2] = system: C57B1/6J mice; assay: Observation of mice activity: methylphenidate-induced hyperactivity, levodopa/carbidopa (Example 2); settings: male mice, IP, methylphenidate 20 mg/kg, levodopa (carbidopa) 17(1,7) mg/kg, 5 minutes session 15 minutes after treatment, Mean ± SEM, n=6
Method: • Species / Strain: Mice / C57B1/6J • Gender / Number / Age: Male / 24 / 9 weeks at study initiation • Source: Janvier Labs, France
The Test items and vehicle were administered via intraperitoneal injections according to Table 3. Table 3 - Study design
as §1

[3] = system: C57B1/6J mice; assay: Hyperactivity and behavioral sensitization induced by methylphenidate: distance travelled in drug sessions (Example 3); settings: male mice, IP; methylphenidate 3 mg/kg, levodopa (carbidopa) 8,5(0,85) or 17(1,7) mg/kg; four 30 minutes drug sessions; n=9
Method: • Species / Strain: Mice / C57B1/6J • Gender / Number / Age: Male / 36 / 6-8 weeks at study initiation • Source: Janvier Labs, France
The Test items and vehicle were administered via intraperitoneal injections according to Table 4. Table 4 - Study design
Mice were subj ected to a behavioral test to evaluate their activity 30 minutes after treatment administration. Mice received an administration of vehicle and were placed in the apparatus (20 cm wide, 40 cm large, 40 cm high) for the habituation session (30 minutes). After, 4 drug sessions were performed on days 2, 4, 8 and 10 or on days 3, 5, 9 and 11. Mice were injected with one of the tested drugs (or vehicle) immediately before being placed in the box. Mice activity was then monitored during 30 minutes session after treatment administration, measuring: distance travelled in the compartment in the four sessions.

[4] = system: C57B1/6J mice; assay: Behavioral sensitization test for methylphenidate addiction/dependence (Example 4); settings: methylphenidate 10 mg/kg, Mean ± SEM; for locomotor activity (total distance travelled) / horizontal activity: female and male mice, IP, levodopa/carbidopa 17/1.7 mg/kg; for locomotor activity (total distance travelled): 20 minutes session; for horizontal activity: line crossings
Method: • Species / Strain: Mice / C57B1/6J • Gender / Number / Age: Male / 30 / 9 weeks at study initiation and Female / 35 / 9 weeks at study initiation • Source: Janvier Labs, France
The Test items and vehicle were administered via intraperitoneal injections according to Table 5. Table 5 - Study design
Mice were subjected to a behavioral test to evaluate their activity after treatment or vehicle administration. Mice (1 per cage) were placed in the center of a polyethylene cage without stainless steel top grill (no access to food or drinking water), without bedding and with a line drawn at the bottom of the cage. First, mice were acclimated to the surrounding and video-recorded for 10 minutes before the beginning of the test to analyse the baseline motor activity (total distance travelled). Second, mice were injected with test item or vehicle and acclimated for another 5 minutes and activity was again monitored and video recorded during a 20 minutes session. The 10 minutes video containing basal activity and the 20 minutes video after treatment administration were analysed using the ezTracker-master software. Horizontal activity was also measured. It represents the number of times the mice crossed the line drawn at the bottom of the cage. Animals are submitted to 6 sessions (3 sessions/week on Monday, Wednesday and Friday). During session 1, all mice receive an administration of vehicle. During sessions 2-5, groups 1F/1M receive an injection of vehicle; groups 2F/2M receive methylphenidate injection, groups 3F/3M receive levodopa/carbidopa injection and groups 4F/4M receive levodopa/carbidopa and methylphenidate injections. And during session 6, all mice receive an administration of methylphenidate.

[5] = day 3, development of behavioral sensitization
[6] = day 10, development of behavioral sensitization

Row | SMILES | horizontal activity [1] | vertical activity [1] | horizontal activity ([2]; line crossings) | vertical activity ([2]; rearing or climbing) | distance travelled during drug sessions [3] | locomotor activity (total distance travelled) [4, 5] | horizontal activity [4, 5] | locomotor activity (total distance travelled) [4, 6] | horizontal activity [4, 6] | locomotor activity before treatment administration (baseline motor activity) ([4]; experimental day 12, 10 minutes baseline session before injection, after chronic treatment, levodopa/carbidopa 17/1.7 mg/kg IP)
1 | N[C@@H](Cc1ccc(O)c(O)c1)C(=O)O [levodopa, L-3,4-dihydroxyphenylalanine] | 17±4 counts | 24±7 counts |  |  |  |  |  |  |  | 
2 | COC(=O)C(c1ccccc1)C1CCCCN1 (stereo not drawn) [methylphenidate, Methylphenidate] | 49±11 counts | 42±16 counts | 62±24 counts | 59±10 counts | increased the distance travelled during drug sessions compared to vehicle-treated group | 127,39±38,76 meters | 259,69±115,51 counts | 185,70±41,44 meters | 420,38±137,05 counts | 28,35±7,43 meters
